From patent US8575119B2, “2′-chloroacetylenyl substituted nucleoside derivatives” (Enanta Pharmaceuticals, Inc., priority 2011, dated 2013)

Key:
HCV 1b genotype replicon = assay: HCV replicon assay, qRT-PCR, genotype 1b (SGR 11-7 replicon cell line); type: cell-based, HCV (strain Conl; conditions: Hepatitis C virus; Genotype-1b replicon, HCV RNA by qRT-PCR normalized to GAPDH RNA
Text: (§1) HCV replicon cell lines (kindly provided by R. Bartenschlager) isolated from colonies as described by Lohman et al. (Lohman et al. (1999) Science 285: 110-113, expressly incorporated by reference in its entirety) and used for all experiments. One of the HCV replicon cell lines (strain Conl, genotype 1b) has the nucleic acid sequence set forth in EMBL Accession No.: AJ242651, the coding sequence of which is from nucleotides 1801 to 8406. Another replicon cell line (strain H77, genotype 1a) was constructed as described by Yi et. al. (Yi et. al. (2004) Journal of Virology 78(15):7904-15). The coding sequences of the published HCV replicons were synthesized and subsequently assembled in plasmids using standard molecular biology techniques.
(§2) One replicon cell line (“SGR 11-7”) stably expresses HCV replicon RNA, genotype 1b, which consists of (i) the HCV 5′UTR fused to the first 12 amino acids of the capsid protein, (ii) the neomycin phosphotransferase gene (neo), (iii) the IRES from encephalomyocarditis virus (EMCV) and (iv) HCV […] to NS5B genes and the HCV 3′UTR. Another replicon cell line (“Huh-1a7”) described by Yi et. al. (Yi et. al. (2004) Journal of Virology 78(15):7904-15, expressly incorporated by reference in its entirety) stably expresses HCV replicon RNA, genotype 1a, which consists of (i) the HCV 5′UTR fused to the first 12 amino acids of the capsid protein, (ii) the HIV tat protein, (iii) the neomycin phosphotransferase gene (neo), (iv) the IRES from encephalomyocarditis virus (EMCV) and (vi) HCV NS3 to NS5B genes that harbor cell culture adaptive mutations (Q1067R, K1691R, S2204I) and the HCV 3′UTR.
(§3) These cell lines are maintained at 37° C., 5% CO2, 100% relative humidity in DMEM (Cat#11965-084, Invitrogen), with 10% fetal calf serum (“FCS”, Invitrogen), 1% non-essential amino acids (Invitrogen), 1% of Glutamax (Invitrogen), 1% of 100× penicillin/streptomycin (Cat#15140-122, Invitrogen) and Geneticin (Cat#10131-027, Invitrogen) at 0.75 mg/ml or 0.25 mg/ml for 11-7 and Huh-1a7 cells, respectively.
(§4) EC50 values of single agent compounds were determined by HCV RNA detection using quantitative RT-PCR, according to the manufacturer's instructions, with a TAQMAN® One-Step RT-PCR Master Mix Reagents Kit (Cat#AB 4309169, Applied Biosystems) on an ABI Model 7500 thermocycler. EC50 values of combinations are similarly determined by HCV RNA detection using quantitative RT-PCR. The TAQMAN primers to use for detecting and quantifying HCV RNA obtained from Integrated DNA Technologies. HCV RNA is normalized to GAPDH RNA levels in drug-treated cells, which is detected and quantified using the Human GAPDH Endogenous Control Mix (Applied Biosystems, AB 4310884E). Total cellular RNA is purified from 96-well plates using the RNAqueous 96 kit (Ambion, Cat#AM1812). Chemical agent cytotoxicity is evaluated using an MTS assay according to the manufacturer's directions (Promega).
(§5) The compounds of the present invention can be effective against the HCV 1a and 1b genotypes. It should also be understood that the compounds of the present invention can inhibit multiple genotypes of HCV. In one embodiment, compounds of the present invention are active against the 1a, 1b, 2a, 2b, 3a, 4a, and 5a genotypes. […] EC50 ranges against HCV 1a or 1b are as follows: A>1 μM; B 0.1-1 μM; C<0.1 μM.

HCV 1a genotype replicon = assay: HCV replicon assay, qRT-PCR, genotype 1a (Huh-1a7 replicon cell line); type: cell-based, HCV (strain H77; conditions: Hepatitis C virus; Genotype-1a replicon, HCV RNA by qRT-PCR normalized to GAPDH RNA
Text: as §1, §2, §3, §4, §5

CCCCCOC(=O)[C@H](C)NP(=O)(OC[C@H]1O[C@@H](n2ccc(=O)[nH]c2=O)[C@@](O)(C#CCl)C1O)Oc1cccc2ccccc12 (some centres unmarked) [Example 7] showed an EC50 (HCV 1b genotype replicon) of 100 to 1000 nM and an EC50 (HCV 1a genotype replicon) of 100 to 1000 nM.

In the case of C[C@H](NP(=O)(OC[C@H]1O[C@@H](n2ccc(=O)[nH]c2=O)C(O)(C#CCl)C1O)Oc1cccc2ccccc12)C(=O)OC1CCCCC1 (some centres unmarked) [Example 10], the EC50 (HCV 1b genotype replicon) is reported as greater than 1000 nM and the EC50 (HCV 1a genotype replicon) is reported as greater than 1000 nM.

Work on C[C@H](NP(=O)(OC[C@H]1O[C@@H](n2ccc(=O)[nH]c2=O)[C@@](O)(C#CCl)C1O)Oc1cccc2ccccc12)C(=O)OC1CCCC1 (some centres unmarked) [Example 9] yielded an EC50 (HCV 1b genotype replicon) of 100 to 1000 nM and an EC50 (HCV 1a genotype replicon) of 100 to 1000 nM.

For CC(C)OC(=O)[C@H](C)NP(=O)(OC[C@H]1O[C@@H](n2ccc(=O)[nH]c2=O)[C@@](O)(C#CCl)C1O)Oc1cccc2ccccc12 (some centres unmarked) [Example 8], the EC50 (HCV 1b genotype replicon) was greater than 1000 nM and the EC50 (HCV 1a genotype replicon) was 100 to 1000 nM.

For C[C@H](N[P@](=O)(OC[C@H]1O[C@@H](n2ccc(=O)[nH]c2=O)[C@@](O)(C#CCl)C1O)Oc1cccc2ccccc12)C(=O)OCC(C)(C)C (some centres unmarked) [Example 4], the EC50 (HCV 1b genotype replicon) was less than 100 nM and the EC50 (HCV 1a genotype replicon) was less than 100 nM.

With COC(=O)[C@H](C)NP(=O)(OC[C@H]1O[C@@H](n2ccc(=O)[nH]c2=O)[C@@](O)(C#CCl)C1O)Oc1cccc2ccccc12 (some centres unmarked) [Example 2] the EC50 (HCV 1b genotype replicon) was 100 to 1000 nM and the EC50 (HCV 1a genotype replicon) was 100 to 1000 nM.

Work on C[C@H](NP(=O)(OC[C@H]1O[C@@H](n2ccc(=O)[nH]c2=O)[C@@](O)(C#CCl)C1O)Oc1cccc2ccccc12)C(=O)OCc1ccccc1 (some centres unmarked) [Example 6] yielded an EC50 (HCV 1b genotype replicon) of 100 to 1000 nM and an EC50 (HCV 1a genotype replicon) of 100 to 1000 nM.

C[C@H](N[P@@](=O)(OC[C@H]1O[C@@H](n2ccc(=O)[nH]c2=O)[C@@](O)(C#CCl)C1O)Oc1cccc2ccccc12)C(=O)OCC(C)(C)C (some centres unmarked) [Example 3] gave an EC50 (HCV 1b genotype replicon) of 100 to 1000 nM and an EC50 (HCV 1a genotype replicon) of 100 to 1000 nM.

O=c1ccn([C@@H]2O[C@H](CO)C(O)C2(O)C#CCl)c(=O)[nH]1 (some centres unmarked) [Example 1] was tested, and the EC50 (HCV 1b genotype replicon) was greater than 1000 nM and the EC50 (HCV 1a genotype replicon) was greater than 1000 nM.

In the case of CCCCOC(=O)[C@H](C)NP(=O)(OC[C@H]1O[C@@H](n2ccc(=O)[nH]c2=O)[C@@](O)(C#CCl)C1O)Oc1cccc2ccccc12 (some centres unmarked) [Example 5], the EC50 (HCV 1b genotype replicon) is reported as 100 to 1000 nM and the EC50 (HCV 1a genotype replicon) is reported as 100 to 1000 nM.
